Assay results from patent publication US10294207B2, “Pyrazole derivatives as TNIK, IKKϵ and TBK1 inhibitor and pharmaceutical composition comprising same” (GREEN CROSS CORPORATION, priority 2015, dated 2019).
Where a name gives a salt, the structure may show the parent alone.

How the values were obtained:
[1] = biological target: T1, TBK1 (Homo sapiens, UniProt Q9UHD2); assay: TBK1 inhibition, ADP-Glo Kinase Assay; type: biochemical; details: luminometer
T1 construct: purchased Promega V3991
T1 sequence (Q9UHD2 1-729): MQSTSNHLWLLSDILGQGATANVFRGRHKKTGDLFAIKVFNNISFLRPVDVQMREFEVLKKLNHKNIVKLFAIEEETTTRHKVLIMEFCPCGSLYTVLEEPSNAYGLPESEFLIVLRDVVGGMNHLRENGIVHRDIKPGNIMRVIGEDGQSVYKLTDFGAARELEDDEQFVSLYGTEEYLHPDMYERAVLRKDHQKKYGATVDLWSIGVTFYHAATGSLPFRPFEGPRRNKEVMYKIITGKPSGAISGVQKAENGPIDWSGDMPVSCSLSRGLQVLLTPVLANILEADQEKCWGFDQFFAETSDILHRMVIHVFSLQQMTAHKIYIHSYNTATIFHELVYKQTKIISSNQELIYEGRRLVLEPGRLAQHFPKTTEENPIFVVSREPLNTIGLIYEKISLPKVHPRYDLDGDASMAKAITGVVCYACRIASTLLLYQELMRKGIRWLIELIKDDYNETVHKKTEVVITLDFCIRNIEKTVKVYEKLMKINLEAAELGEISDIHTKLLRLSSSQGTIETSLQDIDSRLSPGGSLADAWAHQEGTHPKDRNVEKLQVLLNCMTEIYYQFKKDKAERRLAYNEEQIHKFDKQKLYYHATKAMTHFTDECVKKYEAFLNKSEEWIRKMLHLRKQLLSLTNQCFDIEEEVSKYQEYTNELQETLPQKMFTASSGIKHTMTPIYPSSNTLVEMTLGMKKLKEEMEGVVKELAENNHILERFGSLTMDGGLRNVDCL
Procedure: (§1) Inhibition activities on TNIK, IKKε and TBK1 were evaluated using the compounds of Examples 1 to 254.
(§2) The inhibition activities on TNIK, IKKε and TBK1 were measured by a luminometer, TNIK/IKKε/TBK1 Kinase Enzyme System (Promega, Ca# V4158; Invitrogen, PR8031B, Promega, Ca# V3991) and ADP-Glo Kinase Assay using ADP-Glo™ Kinase Analysis Kit (Promega, Ca# V9101) and a kinase reaction buffer [40 mM Tris(pH 7.5), 20 mM MgCl2, 0.1 mg/mL BSA] in accordance with the manufacturer's protocol.

[2] = biological target: T2, IKKε (Homo sapiens, UniProt Q14164); assay: IKKε inhibition, ADP-Glo Kinase Assay; type: biochemical; details: luminometer
T2 construct: purchased Invitrogen PR8031B
T2 sequence (Q14164 1-716): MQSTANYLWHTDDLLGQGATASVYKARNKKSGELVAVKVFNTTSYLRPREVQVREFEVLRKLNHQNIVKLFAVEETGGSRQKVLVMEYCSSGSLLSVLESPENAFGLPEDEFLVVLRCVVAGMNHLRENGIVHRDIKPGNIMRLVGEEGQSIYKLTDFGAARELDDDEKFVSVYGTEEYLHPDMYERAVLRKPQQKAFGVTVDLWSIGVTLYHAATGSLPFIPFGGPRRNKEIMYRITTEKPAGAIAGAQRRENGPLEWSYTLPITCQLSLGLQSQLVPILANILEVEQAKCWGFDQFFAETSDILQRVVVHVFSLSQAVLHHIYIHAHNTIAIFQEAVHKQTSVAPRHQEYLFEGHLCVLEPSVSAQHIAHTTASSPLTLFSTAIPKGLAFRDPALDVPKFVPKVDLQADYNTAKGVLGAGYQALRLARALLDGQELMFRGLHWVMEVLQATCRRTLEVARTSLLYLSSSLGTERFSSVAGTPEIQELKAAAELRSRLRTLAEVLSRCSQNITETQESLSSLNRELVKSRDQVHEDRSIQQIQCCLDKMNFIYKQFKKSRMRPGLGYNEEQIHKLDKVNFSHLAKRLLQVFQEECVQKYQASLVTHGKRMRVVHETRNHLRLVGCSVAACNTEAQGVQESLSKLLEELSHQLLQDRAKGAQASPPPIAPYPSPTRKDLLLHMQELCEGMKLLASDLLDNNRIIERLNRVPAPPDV
Procedure: as §1, §2

| Compound | IC50 [1] | IC50 [2] |
| --- | --- | --- |
| COc1ccc(C(=O)Nc2n[nH]c3ccc(C(=O)NCc4ccco4)cc23)cc1 [Example 2, N-(Furan-2-yl-methyl)-3-(4-methoxybenzamido)-1H-indazole-5-carboxamide] | 0.037 µM | 0.13 µM |
| COc1ccc(C(=O)Nc2n[nH]c3ccc(C(=O)NCc4cccs4)cc23)cc1 [Example 3, 3-(4-Methoxybenzamido)-N-(thiophen-2-ylmethyl)-1H-indazole-5-carboxamide] | 0.038 µM | 0.11 µM |
| Cn1cc(C(=O)Nc2n[nH]c3ccc(C(=O)NCc4cccs4)cc23)cn1 [Example 7, 3-(1-Methyl-1H-pyrazole-4-carboxamido)-N-(thiophen-2-ylmethyl)-1H-indazole-5-carboxamide] | 0.16 µM | 0.25 µM |
| COc1ccc(C(=O)Nc2n[nH]c3ccc(C(=O)NCc4cccs4)cc23)nc1 [Example 8, 3-(5-Methoxypicolinamido)-N-(thiophen-2-ylmethyl)-1H-indazole-5-carboxamide Hydrochloride] | 0.082 µM | 0.33 µM |
| O=C(Nc1n[nH]c2ccc(C(=O)NC3(c4cccs4)CC3)cc12)c1ccc(F)cc1 [Example 15, 3-(4-Fluorobenzamido)-N-(1-(thiophen-2-yl)cyclopropyl)-1H-indazole-5-carboxamide] | 0.025 µM | 0.055 µM |
| N#CC1(NC(=O)c2ccc3[nH]nc(NC(=O)c4ccc(F)cc4)c3c2)CC1 [Example 16, N-(1-Cyanocyclopropyl)-3-(4-fluorobenzamido)-1H-indazole-5-carboxamide] | 0.39 µM | 0.91 µM |
| CCCC(NC(=O)c1ccc2[nH]nc(NC(=O)c3ccc(F)cc3)c2c1)c1cccs1 (centres unmarked) [Example 18, 3-(4-Fluorobenzamido)-N-(1-(thiophen-2-yl)butyl)-1H-indazole-5-carboxamide] | 0.21 µM | 1.23 µM |
| Cc1ccc(CNC(=O)c2ccc3[nH]nc(NC(=O)c4ccc(F)cc4)c3c2)s1 [Example 19, 3-(4-Fluorobenzamido)-N-((5-methylthiophen-2-yl)methyl)-1H-indazole-5-carboxamide] | 0.49 µM | 2.91 µM |
| CC(C)(NC(=O)c1ccc2[nH]nc(NC(=O)c3ccc(F)cc3)c2c1)c1ccccc1 [Example 20, 3-(4-Fluorobenzamido)-N-(2-phenylpropan-2-yl)-1H-indazole-5-carboxamide] | 0.31 µM | 0.35 µM |
| O=C(NCc1ccc(C(F)(F)F)cc1)c1ccc2[nH]nc(NC(=O)c3ccc(F)cc3)c2c1 [Example 21, 3-(4-Fluorobenzamido)-N-(4-(trifluoromethyl)benzyl)-1H-indazole-5-carboxamide] | > 10 µM | > 10 µM |
| O=C(NCC1CC1)c1ccc2[nH]nc(NC(=O)c3ccc(F)cc3)c2c1 [Example 23, N-(Cyclopropylmethyl)-3-(4-fluorobenzamido)-1H-indazole-5-carboxamide] | 1.41 µM | 5.58 µM |
| CCCCNC(=O)c1ccc2[nH]nc(NC(=O)c3ccc(F)cc3)c2c1 [Example 24, N-Butyl-3-(4-fluorobenzamido)-1H-indazole-5-carboxamide] | 0.66 µM | 2.46 µM |
| CC(C)CCNC(=O)c1ccc2[nH]nc(NC(=O)c3ccc(F)cc3)c2c1 [Example 25, 3-(4-Fluorobenzamido)-N-isopentyl-1H-indazole-5-carboxamide] | 0.42 µM | 5.87 µM |
| O=C(NCc1cncs1)c1ccc2[nH]nc(NC(=O)c3ccc(F)cc3)c2c1 [Example 27, 3-(4-Fluorobenzamido)-N-(thiazol-5-ylmethyl)-1H-indazole-5-carboxamide 2,2,2-trifluoroacetate] | 0.2 µM | 0.36 µM |
| O=C(NCc1ccccn1)c1ccc2[nH]nc(NC(=O)c3ccc(F)cc3)c2c1 [Example 28, 3-(4-Fluorobenzamido)-N-(pyridin-2-ylmethyl)-1H-indazole-5-carboxamide2,2,2-trifluoroacetate] | 0.73 µM | 2.62 µM |
| CCC(NCc1ccc2[nH]nc(NC(=O)c3ccc(F)cc3)c2c1)c1cccs1 (centres unmarked) [Example 32] | > 10 µM | > 10 µM |
| CC(C)CC(NC(=O)c1ccc2[nH]nc(NC(=O)c3ccc(F)cc3)c2c1)c1cccs1 (centres unmarked) [Example 33, 3-(4-Fluorobenzamido)-N-(3-methyl-1-(thiophen-2-yl)butyl)-1H-indazole-5-carboxamide] | 4.69 µM | 6.36 µM |
| CCC(C)(NC(=O)c1ccc2[nH]nc(NC(=O)c3ccc(F)cc3)c2c1)c1cccs1 (centres unmarked) [Example 34, 3-(4-Fluorobenzamido)-N-(2-(thiophen-2-yl)butan-2-yl)-1H-indazole-5-carboxamide] | 0.58 µM | 1.74 µM |
| O=C(NCc1cccs1)c1ccc2[nH]nc(NC(=O)c3ccc(F)cc3F)c2c1 [Example 35, 3-(2,4-Difluorobenzamido)-N-(thiophen-2-ylmethyl)-1H-indazole-5-carboxamide] | 0.28 µM | 0.93 µM |
| CN1CCN(c2ccc(C(=O)Nc3n[nH]c4ccc(C(=O)NCc5ccccc5)cc34)cc2)CC1 [Example 40, N-Benzyl-3-(4-(4-methylpiperazin-1-yl)benzamido)-1H-indazole-5-carboxamide] | 0.00094 µM | 0.0089 µM |
| CCC(NC(=O)c1ccc2[nH]nc(NC(=O)c3ccc(N4CCNCC4)cc3)c2c1)c1ccccc1 (centres unmarked) [Example 41, N-(1-Phenylpropyl)-3-(4-(piperazin-1-yl)benzamido)-1H-indazole-5-carboxamide] | 0.0039 µM | 0.047 µM |
| CC(NC(=O)c1ccc2[nH]nc(NC(=O)c3ccc(N4CCOCC4)cc3)c2c1)c1cccs1 (centres unmarked) [Example 43, 3-(4-Morpholinobenzamido)-N-(1-(thiophen-2-yl)ethyl)-1H-indazole-5-carboxamide] | 0.0021 µM | 0.0049 µM |
| CC(NC(=O)c1ccc2[nH]nc(NC(=O)c3ccc(N4CCN(C)CC4)cc3)c2c1)c1cccs1 (centres unmarked) [Example 44, 3-(4-(4-Methylpiperazin-1-yl)benzamido)-N-(1-(thiophen-2-yl)ethyl)-1H-indazole-5-carboxamide] | 0.0035 µM | 0.0031 µM |
| CN1CCN(c2ccc(C(=O)Nc3n[nH]c4ccc(C(=O)NC(CO)c5cccs5)cc34)cc2)CC1 (centres unmarked) [Example 45, N-(2-Hydroxy-1-(thiophen-2-yl)ethyl)-3-(4-(4-methylpiperazin-1-yl)benzamido)-1H-indazole-5-carboxamide] | 0.0021 µM | 0.014 µM |
| O=C(NCc1ccsc1)c1ccc2[nH]nc(NC(=O)c3ccc(N4CCOCC4)cc3)c2c1 [Example 46, 3-(4-Morpholinobenzamido)-N-(thiophen-3-ylmethyl)-1H-indazole-5-carboxamide] | 0.0015 µM | 0.022 µM |
| CN1CCN(c2ccc(C(=O)Nc3n[nH]c4ccc(C(=O)NCc5ccsc5)cc34)cc2)CC1 [Example 47, 3-(4-(4-Methylpiperazin-1-yl)benzamido)-N-(thiophen-3-ylmethyl)-1H-indazole-5-carboxamide] | 0.0014 µM | 0.014 µM |
| O=C(Nc1n[nH]c2ccc(C(=O)NC3(c4cccs4)CC3)cc12)c1ccc(N2CCOCC2)cc1 [Example 48, 3-(4-Morpholinobenzamido)-N-(1-(thiophen-2-yl)cyclopropyl)-1H-indazole-5-carboxamide] | 0.0011 µM | 0.0032 µM |
| CN1CCN(c2ccc(C(=O)Nc3n[nH]c4ccc(C(=O)NC5(c6cccs6)CC5)cc34)cc2)CC1 [Example 49, 3-(4-(4-Methylpiperazin-1-yl)benzamido)-N-(1-(thiophen-2-yl)cyclopropyl)-1H-indazole-5-carboxamide] | 0.0025 µM | 0.0034 µM |
